Measured values taken from ChEMBL document CHEMBL3352741, “Discovery of VU0431316: a negative allosteric modulator of mGlu5 with activity in a mouse model of anxiety” (Bioorg Med Chem Lett, 2014).
pIC50, pKi: −log10 of the molar value. One block for each compound: values may come before it. Activity calls are given as the source filed them. The rule behind the calls is not given here.

What was measured:
[1] = target: T1, Metabotropic glutamate receptor 5 (Rattus norvegicus, UniProt P31424); assay: Negative allosteric modulator activity at rat mGlu5 expressed in HEK293A cells assessed as reduction in glutamate-induced calcium mobilization; format: functional, cell-based, HEK293-A
[2] = target: Metabotropic glutamate receptor 5 (Rattus norvegicus) (UniProt P31424); assay: Negative allosteric modulator activity at rat mGlu5 expressed in HEK293A cells assessed as reduction in 100 uM glutamate-induced calcium mobilization at 30 uM; format: functional, cell-based; conditions: HEK293-A
Plasma [3] = assay: Fraction unbound in human plasma by equilibrium dialysis method; format: ADME, cell-free
[4] = target: Metabotropic glutamate receptor 2 (Homo sapiens) (UniProt Q14416); assay: Activity at mGlu2 (unknown origin) expressed in HEK293-GIRK cells at 10 uM by thallium flux assay; format: cell-based
Brain = assay: Fraction unbound in mouse brain homogenates by equilibrium dialysis method; format: ADME, tissue-based; conditions: brain homogenate
[5] = target: Metabotropic glutamate receptor 4 (Homo sapiens) (UniProt Q14833); assay: Activity at mGlu4 (unknown origin) expressed in HEK293-GIRK cells at 10 uM by thallium flux assay; format: cell-based
[6] = target: Metabotropic glutamate receptor 1 (Rattus norvegicus) (UniProt P23385); assay: Activity at rat mGlu1 expressed in HEK293 cells at 10 uM by calcium flux assay; format: functional, cell-based
MDCK [7] = assay: Efflux ratio in wild type MDCK cells; format: ADME, cell-based, Canis lupus familiaris; conditions: dog
MDCK [8] = assay: Apparent permeability from basolateral to apical side in wild type MDCK cells; format: ADME, cell-based, Canis lupus familiaris; conditions: dog
[9] = target: Metabotropic glutamate receptor 7 (Homo sapiens) (UniProt Q14831); assay: Activity at mGlu7 (unknown origin) expressed in HEK293-GIRK cells at 10 uM by thallium flux assay; format: cell-based
Mus musculus = assay: In vivo mGlu5 negative allosteric modulator activity in Harlan CD1 mouse marble burying model of anxiety assessed as reduction in marble burying at => 10 mg/kg, ip dosed 15 mins before test; format: functional, organism-based; design: dose 10 mg/kg
Cytochrome P450 2D6 = Cytochrome P450 2D6 (Homo sapiens, UniProt P10635); assay: Inhibition of CYP2D6 in pooled human liver microsomes in presence of NADPH; format: ADME
[10] = Ratio of drug level in brain to plasma in Sprague-Dawley rat at 10 mg/kg, po administered as single dose after 60 mins by LC-MS/MS method; format: ADME, organism-based; design: dose 10 mg/kg, route oral; conditions: read-out: BPR
Cytochrome P450 1A2 = target: T2, Cytochrome P450 1A2 (Homo sapiens, UniProt P05177); assay: Inhibition of CYP1A2 in pooled human liver microsomes in presence of NADPH; format: ADME
T2 sequence (P05177 whole entry): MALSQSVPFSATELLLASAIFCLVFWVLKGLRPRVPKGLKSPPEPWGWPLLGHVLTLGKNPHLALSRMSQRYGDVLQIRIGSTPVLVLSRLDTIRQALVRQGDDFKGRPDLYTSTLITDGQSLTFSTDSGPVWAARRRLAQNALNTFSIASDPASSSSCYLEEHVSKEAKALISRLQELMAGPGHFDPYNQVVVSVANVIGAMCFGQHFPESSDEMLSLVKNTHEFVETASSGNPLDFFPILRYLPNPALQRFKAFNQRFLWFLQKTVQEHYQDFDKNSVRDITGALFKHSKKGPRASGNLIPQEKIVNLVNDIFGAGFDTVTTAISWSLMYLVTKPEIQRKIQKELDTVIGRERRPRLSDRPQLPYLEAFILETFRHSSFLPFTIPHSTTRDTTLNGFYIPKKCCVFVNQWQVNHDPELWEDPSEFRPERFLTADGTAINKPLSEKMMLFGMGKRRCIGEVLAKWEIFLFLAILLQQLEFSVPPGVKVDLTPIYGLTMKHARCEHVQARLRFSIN

[11] = Plasma concentration in Harlan CD1 mouse at 30 mg/kg, ip after 60 mins; format: ADME, organism-based; design: dose 30 mg/kg, route intraperitoneal
[12] = Drug level in Harlan CD1 mouse brain at 30 mg/kg, ip after 15 mins; format: ADME, organism-based; design: dose 30 mg/kg, route intraperitoneal; conditions: read-out: Drug uptake
[13] = Clearance in Sprague-Dawley rat at 1 mg/kg, iv after 2 to 1440 mins by LC-MS/MS method; format: ADME, organism-based; design: dose 1 mg/kg, route intravenous; conditions: in vivo
[14] = Plasma concentration in Harlan CD1 mouse at 30 mg/kg, ip after 15 mins; format: ADME, organism-based; design: dose 30 mg/kg, route intraperitoneal
[15] = Drug level in Sprague-Dawley rat hepatic portal vein at 10 mg/kg, po administered as single dose after 60 mins by LC-MS/MS method; format: ADME, organism-based; design: dose 10 mg/kg, route oral; conditions: read-out: Drug uptake
[16] = Drug level in Sprague-Dawley rat brain at 10 mg/kg, po administered as single dose after 60 mins by LC-MS/MS method; format: ADME, organism-based; design: dose 10 mg/kg, route oral; conditions: read-out: Drug uptake
[17] = Drug level in Harlan CD1 mouse brain at 30 mg/kg, ip after 30 mins; format: ADME, organism-based; design: dose 30 mg/kg, route intraperitoneal; conditions: read-out: Drug uptake
Cytochrome P450 2C9 = Cytochrome P450 2C9 (Homo sapiens, UniProt P11712); assay: Inhibition of CYP2C9 in pooled human liver microsomes in presence of NADPH; format: ADME
Plasma [18] = assay: Fraction unbound in cynomolgus monkey plasma by equilibrium dialysis method; format: ADME, cell-free, Macaca fascicularis
[19] = AUC in Sprague-Dawley rat at 10 mg/kg, po administered as single dose after 15 to 1440 mins by LC-MS/MS method; format: ADME, organism-based; design: dose 10 mg/kg, route oral; conditions: plasma
[20] = target: T1, Metabotropic glutamate receptor 5; assay: Displacement of [3H]methoxyPEPy from rat mGlu5 expressed in HEK293A cells after 1 hr by scintillation counting method; format: cell-based, HEK293-A
[21] = target: Metabotropic glutamate receptor 8 (Homo sapiens) (UniProt O00222); assay: Activity at mGlu8 (unknown origin) expressed in HEK293-GIRK cells at 10 uM by thallium flux assay; format: cell-based
[22] = Drug level in Harlan CD1 mouse brain at 30 mg/kg, ip after 60 mins; format: ADME, organism-based; design: dose 30 mg/kg, route intraperitoneal; conditions: read-out: Drug uptake
[23] = target: Metabotropic glutamate receptor 3 (Homo sapiens) (UniProt Q14832); assay: Activity at mGlu3 (unknown origin) expressed in HEK293-GIRK cells at 10 uM by thallium flux assay; format: cell-based
[24] = Cmax in Sprague-Dawley rat at 10 mg/kg, po administered as single dose after 15 to 1440 mins by LC-MS/MS method; format: ADME, organism-based; design: dose 10 mg/kg, route oral; conditions: in vivo
[25] = Apparent permeability from basolateral to apical side in human Caco2 cells; format: ADME, cell-based; conditions: caco-2
[26] = Apparent permeability from apical to basolateral side in human Caco2 cells; format: ADME, cell-based; conditions: caco-2
[27] = AUC in Sprague-Dawley rat at 1 mg/kg, iv after 2 to 1440 mins by LC-MS/MS method; format: ADME, organism-based; design: dose 1 mg/kg, route intravenous; conditions: plasma
[28] = Plasma concentration in Harlan CD1 mouse at 30 mg/kg, ip after 30 mins; format: ADME, organism-based; design: dose 30 mg/kg, route intraperitoneal
[29] = Plasma concentration in Sprague-Dawley rat at 10 mg/kg, po administered as single dose after 60 mins by LC-MS/MS method; format: ADME, organism-based; design: dose 10 mg/kg, route oral
[30] = Volume of distribution at steady state in Sprague-Dawley rat at 1 mg/kg, iv after 2 to 1440 mins by LC-MS/MS method; format: ADME, organism-based; design: dose 1 mg/kg, route intravenous; conditions: in vivo, read-out: Vdss
[31] = Half life in Sprague-Dawley rat at 1 mg/kg, iv after 2 to 1440 mins by LC-MS/MS method; format: ADME, organism-based; design: dose 1 mg/kg, route intravenous; conditions: in vivo
[32] = Efflux ratio in human Caco2 cells; format: ADME, cell-based; conditions: caco-2
[33] = target: Metabotropic glutamate receptor 5 (Homo sapiens, UniProt P41594); assay: Negative allosteric modulator activity at human mGlu5 assessed as reduction in glutamate-induced calcium mobilization; format: functional
MDCK [34] = assay: Apparent permeability from apical to basolateral side in wild type MDCK cells; format: ADME, cell-based, Canis lupus familiaris; conditions: dog
[35] = Tmax in Sprague-Dawley rat at 10 mg/kg, po administered as single dose after 15 to 1440 mins by LC-MS/MS method; format: ADME, organism-based; design: dose 10 mg/kg, route oral; conditions: in vivo
[36] = Oral bioavailability in Sprague-Dawley rat at 10 mg/kg administered as single dose after 15 to 1440 mins by LC-MS/MS method; format: ADME, organism-based; conditions: in vivo
[37] = target: Metabotropic glutamate receptor 6 (Homo sapiens) (UniProt O15303); assay: Activity at mGlu6 (unknown origin) expressed in HEK293-GIRK cells at 10 uM by thallium flux assay; format: cell-based
Plasma [38] = assay: Fraction unbound in rat plasma by equilibrium dialysis method; format: ADME, cell-free
Cytochrome P450 3A4 = Cytochrome P450 3A4 (Homo sapiens, UniProt P08684); assay: Inhibition of CYP3A4 in pooled human liver microsomes in presence of NADPH; format: ADME

Sequence of Metabotropic glutamate receptor 5 (Rattus norvegicus) (P31424 21-1203 limits assumed): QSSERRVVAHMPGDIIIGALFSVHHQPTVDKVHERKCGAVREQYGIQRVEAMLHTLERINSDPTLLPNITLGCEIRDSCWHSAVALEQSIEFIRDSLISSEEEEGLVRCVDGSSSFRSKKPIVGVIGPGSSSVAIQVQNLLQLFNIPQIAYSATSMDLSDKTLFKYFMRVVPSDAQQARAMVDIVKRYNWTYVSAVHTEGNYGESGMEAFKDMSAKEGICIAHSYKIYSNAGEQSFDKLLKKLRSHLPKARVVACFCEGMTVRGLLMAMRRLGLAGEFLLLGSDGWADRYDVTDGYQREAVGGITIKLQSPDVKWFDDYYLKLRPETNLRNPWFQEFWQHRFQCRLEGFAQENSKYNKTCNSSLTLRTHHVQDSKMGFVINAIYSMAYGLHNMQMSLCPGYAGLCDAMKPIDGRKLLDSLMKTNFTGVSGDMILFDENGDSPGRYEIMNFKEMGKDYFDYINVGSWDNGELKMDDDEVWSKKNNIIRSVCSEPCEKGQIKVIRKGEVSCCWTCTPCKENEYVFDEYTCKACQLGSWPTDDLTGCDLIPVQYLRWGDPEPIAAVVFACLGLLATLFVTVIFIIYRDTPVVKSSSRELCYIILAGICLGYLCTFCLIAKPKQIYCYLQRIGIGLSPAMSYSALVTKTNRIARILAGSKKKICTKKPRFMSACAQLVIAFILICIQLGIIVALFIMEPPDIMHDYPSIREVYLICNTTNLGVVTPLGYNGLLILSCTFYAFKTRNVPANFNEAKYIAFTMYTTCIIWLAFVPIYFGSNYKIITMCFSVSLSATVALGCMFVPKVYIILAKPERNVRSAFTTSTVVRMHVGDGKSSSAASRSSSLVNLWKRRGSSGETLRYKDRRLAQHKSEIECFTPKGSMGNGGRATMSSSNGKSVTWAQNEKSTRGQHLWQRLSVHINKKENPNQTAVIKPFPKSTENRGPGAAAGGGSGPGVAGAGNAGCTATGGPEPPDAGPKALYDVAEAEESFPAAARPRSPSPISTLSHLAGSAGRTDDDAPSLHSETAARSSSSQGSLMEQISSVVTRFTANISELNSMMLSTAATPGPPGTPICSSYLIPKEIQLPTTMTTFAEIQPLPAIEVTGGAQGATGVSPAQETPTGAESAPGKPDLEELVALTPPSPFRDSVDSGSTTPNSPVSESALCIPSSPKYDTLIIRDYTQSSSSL
T1 sequence (P31424 whole entry): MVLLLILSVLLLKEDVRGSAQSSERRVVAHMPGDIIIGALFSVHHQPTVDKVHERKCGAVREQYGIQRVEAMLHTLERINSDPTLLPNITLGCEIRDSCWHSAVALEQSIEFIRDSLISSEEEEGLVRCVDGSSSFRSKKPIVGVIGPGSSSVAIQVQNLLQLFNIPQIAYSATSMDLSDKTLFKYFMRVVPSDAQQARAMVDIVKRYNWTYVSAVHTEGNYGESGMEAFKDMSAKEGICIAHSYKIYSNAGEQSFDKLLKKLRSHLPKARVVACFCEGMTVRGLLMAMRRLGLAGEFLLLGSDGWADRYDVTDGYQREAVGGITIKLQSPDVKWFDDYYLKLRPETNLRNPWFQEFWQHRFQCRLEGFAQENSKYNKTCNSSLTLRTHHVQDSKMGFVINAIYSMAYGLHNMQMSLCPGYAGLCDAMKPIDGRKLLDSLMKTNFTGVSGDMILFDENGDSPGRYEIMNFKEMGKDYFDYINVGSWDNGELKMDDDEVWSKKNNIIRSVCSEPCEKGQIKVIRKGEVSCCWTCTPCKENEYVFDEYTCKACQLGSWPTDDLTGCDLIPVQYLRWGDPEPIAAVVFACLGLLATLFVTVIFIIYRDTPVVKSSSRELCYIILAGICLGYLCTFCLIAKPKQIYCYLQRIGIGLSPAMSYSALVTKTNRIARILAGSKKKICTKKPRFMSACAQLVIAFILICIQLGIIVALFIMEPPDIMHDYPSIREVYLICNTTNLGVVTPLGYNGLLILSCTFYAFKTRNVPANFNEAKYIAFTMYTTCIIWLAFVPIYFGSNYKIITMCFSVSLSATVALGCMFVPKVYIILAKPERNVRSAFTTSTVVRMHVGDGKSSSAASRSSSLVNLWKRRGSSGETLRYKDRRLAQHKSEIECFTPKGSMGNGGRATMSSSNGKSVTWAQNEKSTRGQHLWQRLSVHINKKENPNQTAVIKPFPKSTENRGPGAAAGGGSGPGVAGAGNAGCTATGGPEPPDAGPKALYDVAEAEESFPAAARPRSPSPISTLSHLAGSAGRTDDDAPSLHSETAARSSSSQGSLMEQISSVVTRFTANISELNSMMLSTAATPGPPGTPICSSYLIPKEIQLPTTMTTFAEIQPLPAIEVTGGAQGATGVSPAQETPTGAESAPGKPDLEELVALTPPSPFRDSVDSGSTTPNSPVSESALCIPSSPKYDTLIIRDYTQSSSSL
Sequence of Metabotropic glutamate receptor 3 (Homo sapiens) (Q14832 23-879 limits assumed): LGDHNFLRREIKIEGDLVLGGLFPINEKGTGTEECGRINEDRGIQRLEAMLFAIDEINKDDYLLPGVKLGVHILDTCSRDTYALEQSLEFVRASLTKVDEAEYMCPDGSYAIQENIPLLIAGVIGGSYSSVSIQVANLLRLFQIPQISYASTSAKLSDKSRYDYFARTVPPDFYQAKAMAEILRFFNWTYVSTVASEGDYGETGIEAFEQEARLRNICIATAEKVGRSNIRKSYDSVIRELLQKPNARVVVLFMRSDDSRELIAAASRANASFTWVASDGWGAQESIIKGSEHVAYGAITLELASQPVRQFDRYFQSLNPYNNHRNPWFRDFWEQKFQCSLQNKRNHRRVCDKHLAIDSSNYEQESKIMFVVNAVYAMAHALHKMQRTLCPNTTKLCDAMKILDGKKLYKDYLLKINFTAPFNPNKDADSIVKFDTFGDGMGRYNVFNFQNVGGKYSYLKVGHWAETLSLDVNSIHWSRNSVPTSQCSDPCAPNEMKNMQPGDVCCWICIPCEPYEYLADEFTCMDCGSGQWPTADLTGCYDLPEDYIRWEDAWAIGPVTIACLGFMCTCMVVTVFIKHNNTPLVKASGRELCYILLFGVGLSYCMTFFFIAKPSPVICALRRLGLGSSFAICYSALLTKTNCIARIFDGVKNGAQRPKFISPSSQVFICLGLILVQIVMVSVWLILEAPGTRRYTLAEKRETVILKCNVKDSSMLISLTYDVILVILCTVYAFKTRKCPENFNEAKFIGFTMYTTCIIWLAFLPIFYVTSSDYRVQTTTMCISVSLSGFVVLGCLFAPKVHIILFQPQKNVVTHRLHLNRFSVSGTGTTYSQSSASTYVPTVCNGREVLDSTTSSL
Sequence of Cytochrome P450 2C9 (P11712 whole entry): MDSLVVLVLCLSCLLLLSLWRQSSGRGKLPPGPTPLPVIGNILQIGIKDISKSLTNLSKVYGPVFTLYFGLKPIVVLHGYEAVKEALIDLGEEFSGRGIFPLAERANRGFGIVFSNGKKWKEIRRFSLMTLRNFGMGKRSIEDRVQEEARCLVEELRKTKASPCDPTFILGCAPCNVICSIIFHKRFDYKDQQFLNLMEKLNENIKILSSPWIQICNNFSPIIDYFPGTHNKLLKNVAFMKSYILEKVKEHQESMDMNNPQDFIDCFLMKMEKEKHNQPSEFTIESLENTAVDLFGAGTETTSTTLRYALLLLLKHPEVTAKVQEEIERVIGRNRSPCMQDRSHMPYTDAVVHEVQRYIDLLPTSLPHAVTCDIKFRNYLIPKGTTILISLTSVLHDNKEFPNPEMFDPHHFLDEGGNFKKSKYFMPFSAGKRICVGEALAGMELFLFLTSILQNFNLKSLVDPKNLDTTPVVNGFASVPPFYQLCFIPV
Sequence of Metabotropic glutamate receptor 4 (Homo sapiens) (Q14833 whole entry): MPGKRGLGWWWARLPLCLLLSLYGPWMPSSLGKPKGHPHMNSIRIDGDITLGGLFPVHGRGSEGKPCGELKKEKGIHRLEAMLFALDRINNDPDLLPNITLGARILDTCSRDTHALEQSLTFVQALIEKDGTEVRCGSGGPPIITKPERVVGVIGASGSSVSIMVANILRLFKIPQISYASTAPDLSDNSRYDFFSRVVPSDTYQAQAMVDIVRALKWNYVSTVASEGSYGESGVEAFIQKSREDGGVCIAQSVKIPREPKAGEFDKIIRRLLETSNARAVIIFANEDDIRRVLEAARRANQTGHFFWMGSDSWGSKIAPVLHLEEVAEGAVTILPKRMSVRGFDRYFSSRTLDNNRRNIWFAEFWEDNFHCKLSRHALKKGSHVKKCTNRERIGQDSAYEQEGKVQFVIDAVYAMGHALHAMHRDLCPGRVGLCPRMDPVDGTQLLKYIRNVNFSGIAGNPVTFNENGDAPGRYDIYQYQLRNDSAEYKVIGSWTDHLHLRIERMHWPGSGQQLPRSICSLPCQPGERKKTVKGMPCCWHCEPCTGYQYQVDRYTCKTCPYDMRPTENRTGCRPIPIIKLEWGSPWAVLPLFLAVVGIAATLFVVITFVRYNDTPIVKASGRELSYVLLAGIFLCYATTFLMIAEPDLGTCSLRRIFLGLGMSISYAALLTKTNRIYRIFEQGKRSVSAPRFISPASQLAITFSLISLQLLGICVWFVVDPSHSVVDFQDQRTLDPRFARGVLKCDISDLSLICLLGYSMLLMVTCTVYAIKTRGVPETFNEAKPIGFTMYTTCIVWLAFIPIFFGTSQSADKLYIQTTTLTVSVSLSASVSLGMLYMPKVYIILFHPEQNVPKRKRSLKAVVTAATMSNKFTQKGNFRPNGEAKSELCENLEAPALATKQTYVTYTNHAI

Compound: O=C(Nc1ccnc(Oc2cccnc2)c1)c1cccc(Cl)c1
- pIC50 [1]: 5.43

Compound: O=C(Nc1cncc(Oc2cncc(F)c2)n1)c1cc(F)cc(F)c1
- pIC50 [1]: < 4.52

Compound: O=C(Nc1cncc(Oc2cncnc2)n1)c1cccs1
- %max [2]: 20%
- pIC50 [1]: < 5.00

Compound: O=C(Nc1cncc(Oc2cncnc2)n1)c1ccccc1
- %max [2]: 12%
- pIC50 [1]: < 5.00

Compound: O=C(Nc1cncc(Oc2cccnc2)n1)c1cccc(Cl)c1
- pIC50 [1]: 6.89

Compound: O=C(Nc1cncc(Oc2cncc(F)c2)n1)c1ccccc1
- %max [2]: -9.4%

Second part, led by results:

- %max [2]: 2%
- pIC50 [1]: 6.95
Compound: O=C(Nc1cncc(Oc2cncc(F)c2)n1)c1cc(Cl)ccn1

- %max [2]: 1.5%
- pIC50 [1]: 5.29
Compound: O=C(Nc1cncc(Oc2cncnc2)n1)c1cccc(F)c1

- Fu (Plasma [3]): 0.12
- Activity [4]: inactive
- Fu (Brain): 0.054
- Activity [5]: inactive
- Activity [6]: inactive
- Ratio (MDCK [7]): 0.89
- Papp (MDCK [8]): 45 ×10⁻⁶ cm/s
- Activity [9]: inactive
- pIC50 (Cytochrome P450 2D6): < 4.52
- Kp at 1 h [10]: 1.6
- pIC50 (Cytochrome P450 1A2): 6.22
- concentration at 1 h [11]: 1690 nM
- concentration at 0.25 h [12]: 6.21 µM
- clearance [13]: 30.2 mL/min/kg
- concentration at 0.25 h [14]: 3.99 µM
- concentration at 1 h [15]: 1310 nM
- concentration at 1 h [16]: 1450 nM
- concentration at 0.5 h [17]: 3.69 µM
- pIC50 (Cytochrome P450 2C9): < 4.52
- Fu (Plasma [18]): 0.167
- AUC [19]: 8.37 µM·h
- pKi [20]: 7.43
- %max [2]: 1.6%
- Activity [21]: inactive
- concentration at 1 h [22]: 2800 nM
- Activity [23]: inactive
- Cmax [24]: 1120 nM
- Papp [25]: 71.4 ×10⁻⁶ cm/s
- Papp [26]: 66.8 ×10⁻⁶ cm/s
- AUC [27]: 1.73 µM·h
- concentration at 0.5 h [28]: 3000 nM
- concentration at 1 h [29]: 920 nM
- pIC50 [1]: 7.20
- Vd [30]: 2.7 L/kg
- half-life [31]: 193 min
- Ratio [32]: 1.07
- pIC50 [33]: 7.07
- Papp (MDCK [34]): 50.4 ×10⁻⁶ cm/s
- Tmax [35]: 4 h
- bioavailability [36]: 48%
- Activity [37]: inactive
- Fu (Plasma [38]): 0.179
- pIC50 (Cytochrome P450 3A4): < 4.52
Compound: O=C(Nc1cncc(Oc2cncnc2)n1)c1cc(Cl)ccn1
- Activity (Mus musculus): Active

- %max [2]: -0.4%
- pIC50 [1]: 5.42
Compound: O=C(Nc1cncc(Oc2cncc(F)c2)n1)c1cccc(F)c1

- %max [2]: 1%
- pIC50 [1]: 6.05
Compound: O=C(Nc1cncc(Oc2cncc(F)c2)n1)c1cc(Cl)ccc1F
